Results published in ChEMBL document CHEMBL1138820, “Synthesis and QSAR studies of pyrimido[4,5-d]pyrimidine-2,5-dione derivatives as potential antimicrobial agents” (2004).
Converted amounts (≈) assume the structure as drawn.

Legend:
Type in all cases: functional
[1] = tested on: Aspergillus niger; test: Minimum inhibitory concentration required for antifungal activity against Aspergillus niger ATCC 16404
[2] = tested on: Bacillus subtilis; test: Minimum inhibitory concentration required for antibacterial activity against Bacillus subtilis ATCC 6633; gram positive
[3] = tested on: Escherichia coli; test: Minimum inhibitory concentration required for antibacterial activity against Escherichia coli ATCC 13607; gram negative
[4] = Minimum inhibitory concentration required for antibacterial activity against Pseudomonas diminuta MTCC 3361; gram negative; conditions: Brevundimonas diminuta
[5] = tested on: Staphylococcus aureus; test: Minimum inhibitory concentration required for antibacterial activity against Staphylococcus aureus ATCC 2943; gram positive
[6] = tested on: Candida albicans; test: Minimum inhibitory concentration required for antifungal activity against Candida albicans ATCC 10321

O=C1Nc2[nH]c(=S)n(-c3ccccc3)c(=O)c2C(c2ccccc2Cl)N1/N=N/c1ccc(Cl)cc1 (configuration not stated)
MIC [1]: 57 µg/mL (≈ 109 µM) | MIC [2]: 37 µg/mL (≈ 70.7 µM) | MIC [3]: 40 µg/mL (≈ 76.4 µM) | MIC [4]: 46 µg/mL (≈ 87.9 µM) | MIC [5]: 32 µg/mL (≈ 61.1 µM) | MIC [6]: 52 µg/mL (≈ 99.3 µM)

O=C1Nc2[nH]c(=S)n(-c3ccc([N+](=O)[O-])cc3)c(=O)c2C(c2ccccc2Cl)N1/N=N/c1ccc(Cl)cc1 (configuration not stated)
MIC [1]: 19 µg/mL (≈ 33.4 µM) | MIC [2]: 6 µg/mL (≈ 10.6 µM) | MIC [3]: 7 µg/mL (≈ 12.3 µM) | MIC [4]: 9 µg/mL (≈ 15.8 µM) | MIC [5]: 4 µg/mL (≈ 7.04 µM) | MIC [6]: 15 µg/mL (≈ 26.4 µM)

Cc1ccc(-n2c(=S)[nH]c3c(c2=O)C(c2ccccc2Cl)N(/N=N/c2ccc(Cl)cc2)C(=O)N3)cc1 (configuration not stated)
MIC [1]: 42 µg/mL (≈ 78.1 µM) | MIC [2]: 22 µg/mL (≈ 40.9 µM) | MIC [3]: 26 µg/mL (≈ 48.4 µM) | MIC [4]: 31 µg/mL (≈ 57.7 µM) | MIC [5]: 21 µg/mL (≈ 39.1 µM) | MIC [6]: 39 µg/mL (≈ 72.6 µM)

COc1ccc(-n2c(=S)[nH]c3c(c2=O)C(c2ccccc2Cl)N(/N=N/c2ccc(Cl)cc2)C(=O)N3)cc1 (configuration not stated)
MIC [1]: 33 µg/mL (≈ 59.6 µM) | MIC [2]: 16 µg/mL (≈ 28.9 µM) | MIC [3]: 17 µg/mL (≈ 30.7 µM) | MIC [4]: 21 µg/mL (≈ 37.9 µM) | MIC [5]: 11 µg/mL (≈ 19.9 µM) | MIC [6]: 29 µg/mL (≈ 52.4 µM)

O=C1Nc2[nH]c(=S)n(-c3cccc(Cl)c3)c(=O)c2C(c2ccccc2Cl)N1/N=N/c1ccc(Cl)cc1 (configuration not stated)
MIC [1]: 14 µg/mL (≈ 25.1 µM) | MIC [2]: 4 µg/mL (≈ 7.17 µM) | MIC [3]: 4 µg/mL (≈ 7.17 µM) | MIC [4]: 5 µg/mL (≈ 8.96 µM) | MIC [5]: 2 µg/mL (≈ 3.59 µM) | MIC [6]: 11 µg/mL (≈ 19.7 µM)

Cc1cccc(-n2c(=S)[nH]c3c(c2=O)C(c2ccccc2Cl)N(/N=N/c2ccc(Cl)cc2)C(=O)N3)c1 (configuration not stated)
MIC [1]: 39 µg/mL (≈ 72.6 µM) | MIC [2]: 21 µg/mL (≈ 39.1 µM) | MIC [3]: 22 µg/mL (≈ 40.9 µM) | MIC [4]: 25 µg/mL (≈ 46.5 µM) | MIC [5]: 18 µg/mL (≈ 33.5 µM) | MIC [6]: 35 µg/mL (≈ 65.1 µM)

O=C1Nc2[nH]c(=S)n(-c3cccc([N+](=O)[O-])c3)c(=O)c2C(c2ccccc2Cl)N1/N=N/c1ccc(Cl)cc1 (configuration not stated)
MIC [1]: 16 µg/mL (≈ 28.1 µM) | MIC [2]: 5 µg/mL (≈ 8.8 µM) | MIC [3]: 6 µg/mL (≈ 10.6 µM) | MIC [4]: 8 µg/mL (≈ 14.1 µM) | MIC [5]: 3 µg/mL (≈ 5.28 µM) | MIC [6]: 13 µg/mL (≈ 22.9 µM)

O=C1Nc2[nH]c(=S)n(-c3cccc(O)c3)c(=O)c2C(c2ccccc2Cl)N1/N=N/c1ccc(Cl)cc1 (configuration not stated)
MIC [1]: 24 µg/mL (≈ 44.5 µM) | MIC [2]: 8 µg/mL (≈ 14.8 µM) | MIC [3]: 10 µg/mL (≈ 18.5 µM) | MIC [4]: 13 µg/mL (≈ 24.1 µM) | MIC [5]: 6 µg/mL (≈ 11.1 µM) | MIC [6]: 20 µg/mL (≈ 37.1 µM)

O=C(O)c1ccc(-n2c(=S)[nH]c3c(c2=O)C(c2ccccc2Cl)N(/N=N/c2ccc(Cl)cc2)C(=O)N3)cc1 (configuration not stated)
MIC [1]: 22 µg/mL (≈ 38.8 µM) | MIC [2]: 7 µg/mL (≈ 12.3 µM) | MIC [3]: 8 µg/mL (≈ 14.1 µM) | MIC [4]: 11 µg/mL (≈ 19.4 µM) | MIC [5]: 5 µg/mL (≈ 8.81 µM) | MIC [6]: 17 µg/mL (≈ 30 µM)

O=C1Nc2[nH]c(=S)n(-c3ccc(O)cc3)c(=O)c2C(c2ccccc2Cl)N1/N=N/c1ccc(Cl)cc1 (configuration not stated)
MIC [1]: 27 µg/mL (≈ 50.1 µM) | MIC [2]: 10 µg/mL (≈ 18.5 µM) | MIC [3]: 12 µg/mL (≈ 22.2 µM) | MIC [4]: 15 µg/mL (≈ 27.8 µM) | MIC [5]: 8 µg/mL (≈ 14.8 µM) | MIC [6]: 23 µg/mL (≈ 42.6 µM)

O=C1Nc2[nH]c(=S)n(-c3ccc(Cl)cc3)c(=O)c2C(c2ccccc2Cl)N1/N=N/c1ccc(Cl)cc1 (configuration not stated)
MIC [1]: 29 µg/mL (≈ 52 µM) | MIC [2]: 12 µg/mL (≈ 21.5 µM) | MIC [3]: 13 µg/mL (≈ 23.3 µM) | MIC [4]: 14 µg/mL (≈ 25.1 µM) | MIC [5]: 9 µg/mL (≈ 16.1 µM) | MIC [6]: 24 µg/mL (≈ 43 µM)

CC1(C)S[C@@H]2[C@H](NC(=O)[C@H](N)c3ccccc3)C(=O)N2[C@H]1C(=O)O [AMPICILLIN]
MIC [2]: 10 µg/mL (≈ 28.6 µM) | MIC [3]: 49 µg/mL (≈ 140 µM) | MIC [4]: 15 µg/mL (≈ 42.9 µM) | MIC [5]: 50 µg/mL (≈ 143 µM)

Clc1ccccc1C(c1ccccc1)(c1ccccc1)n1ccnc1 [CLOTRIMAZOLE]
MIC [1]: 20 µg/mL (≈ 58 µM) | MIC [6]: 25 µg/mL (≈ 72.5 µM)
